Legend:
[1] = system: EBOV-GP-Pseudotype Virus (pEBOV); assay: microbe, parasite or virus in culture; conditions: Zaire ebolavirus, 48 h; for inhibition at 10 µM: M-HeLa, read-out: %inh@10 μM (pEBOV)
[2] = in vitro; conditions: human

Structure (SMILES)	inhibition at 10 µM [1] [%]	CC50 [2] [µM]	EC50 ([1]; HeLa, read-out: EC50 (μM) (pEBOV)) [µM]
O=C(Cc1ccc(Br)cc1)N(c1ccccc1)c1ccccc1 [Compound 45, 2-(4-Bromophenyl)-N,N-diphenylacetamide]	36	> 100	
COC(=O)C1CCN(CC(=O)NN(Cc2ccccc2)c2ccccc2)CC1 [Compound 36, Methyl 1-(2-(2-Benzyl-2-phenylhydrazineyl)-2-oxoethyl)piperidine-4-carboxylate]	24	> 100	
CCOC(=O)C1CCN(CC(=O)NN(c2ccccc2)c2ccccc2)CC1 [Compound 17, Ethyl 1-(2-(2,2-Diphenylhydrazinyl)-2-oxoethyl)piperidine-4-carboxylate]	47	> 10	
CCCCCC(=O)NN(Cc1ccccc1)c1ccccc1 [Compound 38, N′-Benzyl-N′-phenylhexanehydrazide]	18	> 100	
CCOC(=O)C1CCN(CCC(=O)NN(c2ccccc2)c2ccccc2)CC1 [Compound 18, Ethyl 1-(3-(2,2-Diphenylhydrazinyl)-3-oxopropyl)piperidine-4-carboxylate]	24	> 10	
CCOC(=O)CCCCCCNCCC(=O)NN(c1ccccc1)c1ccccc1 [Compound 27, Ethyl 7-((3-(2,2-Diphenylhydrazinyl)-3-oxopropyl)amino)heptanoate]	53	> 10	
O=C(CCNCCc1ccccc1)NN(c1ccccc1)c1ccccc1 [Compound 25, 3-(Phenethylamino)-N′,N′-diphenylpropanehydrazide]	61	> 10	
O=C(CNCCc1ccccc1)NN(c1ccccc1)c1ccccc1 [Compound 24, 2-(Phenethylamino)-N′,N′-diphenylacetohydrazide]	10	> 10	
O=C(Cc1ccc(Br)cc1)NN(Cc1ccccc1)c1ccccc1 [Compound 39, N′-Benzyl-2-(4-bromophenyl)-N′-phenylacetohydrazide]	32	> 100	
O=C(CN1CCN(c2ccccc2)CC1)NN(c1ccccc1)c1ccccc1 [Compound 15, N′,N′-Diphenyl-2-(4-phenylpiperazin-1-yl)acetohydrazide]	8	> 10	> 100
CCCCCC(=O)NN(c1ccccc1)c1ccccc1 [Compound 28, N′,N′-Diphenylhexanehydrazide]	67	> 10	
O=C(CN1CCOCC1)NN(c1ccccc1)c1ccccc1 [Compound 20, 2-Morpholino-N′,N′-diphenylacetohydrazide]	-1	> 10	
O=C(CCN1CCOCC1)NN(c1ccccc1)c1ccccc1 [Compound 21, 3-Morpholino-N′,N′-diphenylpropanehydrazide]	29	> 10	
CCOC(=O)C1CCN(CC(=O)NN(Cc2ccccc2)c2ccccc2)CC1 [Compound 35, Ethyl 1-(2-(2-Benzyl-2-phenylhydrazineyl)-2-oxoethyl)piperidine-4-carboxylate]	15	> 100	
O=C(CCN1CCN(c2ccccc2)CC1)NN(c1ccccc1)c1ccccc1 [Compound 16, N′,N′-Diphenyl-3-(4-phenylpiperazin-1-yl)propanehydrazide]	70	> 10	
CCOC(=O)CCCCCCNCC(=O)NN(c1ccccc1)c1ccccc1 [Compound 26, Ethyl 7-((2-(2,2-Diphenylhydrazinyl)-2-oxoethyl)amino)heptanoate]	51	> 10	
O=C(CCNCCN1CCOCC1)NN(c1ccccc1)c1ccccc1 [Compound 23, 3-((2-Morpholinoethyl)amino)-N′,N′-diphenylpropanehydrazide]	42	> 10	
CCOC(=O)CCCCCCNCC(=O)NN(Cc1ccccc1)c1ccccc1 [Compound 37, Ethyl 7-((2-(2-Benzyl-2-phenylhydrazineyl)-2-oxoethyl)amino)heptanoate]	30	> 100	

Reference: article PMC10150359 (Journal of Medicinal Chemistry, 2023)
